Key:
[1] = Compound cytotoxicity, XTT-based colorimetric assay; format: cell-based; conditions: human, uninfected MT2 cells, day 4, XTT
Summary of the method: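 Run under the antiviral-assay protocol but without virus. Viability was read on day 4 and CC50 values were derived from the readout.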

[2] = tested on: recombinant NL4-3 virus (nef section replaced with Renilla luciferase gene) in MT-2 cells; assay: HIV cell culture assay (antiviral activity, luciferase readout); format: cell-based; conditions: Renilla, NL43, MT-2 cells infected for 4-5 days with recombinant NL4-3 Renilla luciferase virus, serial dilutions of compound
Summary of the method: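 Test compound in serial dilution was present while MT-2 cells were infected for 4–5 days with recombinant NL4-3 virus made in 293T cells. Antiviral activity was quantified as Renilla luciferase activity, read with a live-cell substrate. EC50 came from the median-effect equation.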

| SMILES | CC50 at 4 day [1] [nM] | EC50 [2] [nM] |
| --- | --- | --- |
| Cn1nc(NS(C)(=O)=O)c2c(Cl)ccc(-n3c([C@H](Cc4cc(F)cc(F)c4)NC(=O)Cn4nc(C(F)F)c5c4C(F)(F)[C@@H]4C[C@H]54)nc4cc(-c5c(Cl)cccc5Cl)ccc4c3=O)c21 (atropisomer, axis not shown; (aR)) [Example 104, N-((S)-1-(3-(4-chloro-1-methyl-3-(methylsulfonamido)-1H-indazol-7-yl)-7-(2,6-dichlorophenyl)-4-oxo-3,4-dihydroquinazolin-2-yl)-2-(3,5-difluorophenyl)ethyl)-2-((3bS,4aR)-3-(difluoromethyl)-5,5-difluoro-3b,4,4a,5-tetrahydro-1H-cyclopropa[3,4]cyclopenta[1,2-c]pyrazol-1-yl)acetamide] | > 1000 | 0.68 |
| Cn1nc(NS(C)(=O)=O)c2c(Cl)ccc(-n3c([C@H](Cc4cc(F)cc(F)c4)NC(=O)Cn4nc(C(F)F)c5c4C(F)(F)[C@@H]4C[C@H]54)nc4cc(-c5ccc(F)cc5CO)ccc4c3=O)c21 (atropisomer, axis not shown; (aR)) [Example 105, N-((S)-1-(3-(4-chloro-1-methyl-3-(methylsulfonamido)-1H-indazol-7-yl)-7-(4-fluoro-2-(hydroxymethyl)phenyl)-4-oxo-3,4-dihydroquinazolin-2-yl)-2-(3,5-difluorophenyl)ethyl)-2-((3bS,4aR)-3-(difluoromethyl)-5,5-difluoro-3b,4,4a,5-tetrahydro-1H-cyclopropa[3,4]cyclopenta[1,2-c]pyrazol-1-yl)acetamide] | > 1000 | 0.34 |
| Cn1nc(NS(C)(=O)=O)c2c(Cl)ccc(-n3c([C@H](Cc4cc(F)cc(F)c4)NC(=O)Cn4nc(C(F)F)c5c4C(F)(F)[C@@H]4C[C@H]54)nc4cc(-c5ccccc5Oc5ccccc5)ccc4c3=O)c21 (atropisomer, axis not shown; (aR)) [Example 107, N-((S)-1-(3-(4-chloro-1-methyl-3-(methylsulfonamido)-1H-indazol-7-yl)-4-oxo-7-(2-phenoxyphenyl)-3,4-dihydroquinazolin-2-yl)-2-(3,5-difluorophenyl)ethyl)-2-((3bS,4aR)-3-(difluoromethyl)-5,5-difluoro-3b,4,4a,5-tetrahydro-1H-cyclopropa[3,4]cyclopenta[1,2-c]pyrazol-1-yl)acetamide] | > 1000 | 10 |
| Cn1nc(NS(C)(=O)=O)c2c(Cl)ccc(-n3c([C@H](Cc4cc(F)cc(F)c4)NC(=O)Cn4nc(C(F)F)c5c4C(F)(F)[C@@H]4C[C@H]54)nc4cc(-c5cc(F)c(F)c(F)c5)ccc4c3=O)c21 (atropisomer, axis not shown; (aR)) [Example 108, N-((S)-1-(3-(4-chloro-1-methyl-3-(methylsulfonamido)-1H-indazol-7-yl)-4-oxo-7-(3,4,5-trifluorophenyl)-3,4-dihydroquinazolin-2-yl)-2-(3,5-difluorophenyl)ethyl)-2-((3bS,4aR)-3-(difluoromethyl)-5,5-difluoro-3b,4,4a,5-tetrahydro-1H-cyclopropa[3,4]cyclopenta[1,2-c]pyrazol-1-yl)acetamide] | > 1000 | 0.78 |
| Cn1nc(NS(C)(=O)=O)c2c(Cl)ccc(-n3c([C@H](Cc4cc(F)cc(F)c4)NC(=O)Cn4nc(C(F)F)c5c4C(F)(F)[C@@H]4C[C@H]54)nc4cc(-c5ccccc5S(C)(=O)=O)ccc4c3=O)c21 (atropisomer, axis not shown; (aR)) [Example 109, N-((S)-1-(3-(4-chloro-1-methyl-3-(methylsulfonamido)-1H-indazol-7-yl)-7-(2-(methylsulfonyl)phenyl)-4-oxo-3,4-dihydroquinazolin-2-yl)-2-(3,5-difluorophenyl)ethyl)-2-((3bS,4aR)-3-(difluoromethyl)-5,5-difluoro-3b,4,4a,5-tetrahydro-1H-cyclopropa[3,4]cyclopenta[1,2-c]pyrazol-1-yl)acetamide] | > 1000 | 0.11 |

Reference: patent US11505543B2, “4-oxo-3,4-dihydroquinazoline compounds as inhibitors of human immunodeficiency virus replication” (VIIV HEALTHCARE UK (NO.5) LIMITED, priority 2018, dated 2022)
